{"source": "patent US5908828A", "about": "“Synthetic peptide derivatives and the salts thereof” (Hoechst Japan Limited, priority 1994, dated 1999)", "system": "ALPase activity in MC3T3-E1 cells promoted by rh-BMP-2", "experiment": "Assay of BMP inhibiting activity (BMP-2 antagonist-like activity): ALPase activity in cultured MC3T3-E1 cells", "assay_type": "cell-based, mouse", "conditions": "for ALPase activity: MC3T3-E1 cells, 2 days", "procedure": "BMP-2 antagonist-like activity of the present synthetic peptide derivatives was assayed by way of cultured MC3T3-E1 cells which were established from mouse calvaria having osteoblast-like property, by Kodama et al. (Kodama, H. et al. (1981) Jpn. J Oral. Biol., vol.23, p.899). The cultured MC3T3-E1 cells were prepared according to Takuwa et al. (Takuwa, Y. et al., (1991) Biochem.\nBiophys. Res. Comuni., vol. […] ALPase is often used as an indicator enzyme for differentiation and maturity of osteoblasts and chondrocytes (Pfeilschifter, J., et al., Endocrinology (1987), vol. 121, p212-218; Rodan, G. A., et al., calcium regulating hormones and bone metabolism, Elsevir Science Publishers B.V., (1992), p 183-196).", "note": "Bridge positions count the residues as written; N and C are the ends. Ends that are not written are not given here. I, II: the chains in the order shown."}
{"substance": "synthetic peptide derivative: Fragment P1 (SEQ ID NO:1, N-terminal acetyl-Cys) joined to Fragment P2 (SEQ ID NO:2) through a 4-(N-maleimidomethyl)cyclohexane-1-carbonyl linker (chain 1 {CH2CO}-CDFSDVGWNDWIVAPPGY; chain 2 AIVQTLVNSVNSKIPKA; thioether I:N-II:N via 4‑(N-maleimidomethyl)cyclohexane‑1‑carbonyl; not fully specified (N-terminus, C-terminus, bridges))", "values": [{"measurement": "inhibition of rh-BMP-2-promoted ALPase activity in MC3T3-E1 cells", "setting": "2×10^-9 to 2×10^-6 M, result in words", "result": "inhibited ALPase activity in MC3T3-E1 cells which were promoted by rh-BMP-2 with 2×10^-9 to 2×10^-6 M dose dependently"}, {"measurement": "ALPase activity", "setting": "rh-BMP-2 5 ng/ml + synthetic peptide derivative 2 × 10^-7 M, n = 4", "result": "302 ± 54", "unit": "pmol/min"}, {"measurement": "ALPase activity", "setting": "rh-BMP-2 5 ng/ml + synthetic peptide derivative 2 × 10^-8 M, n = 4", "result": "486 ± 36", "unit": "pmol/min"}, {"measurement": "ALPase activity", "setting": "rh-BMP-2 5 ng/ml + synthetic peptide derivative 2 × 10^-9 M, n = 4", "result": "632 ± 71", "unit": "pmol/min"}, {"measurement": "ALPase activity", "setting": "rh-BMP-2 5 ng/ml + synthetic peptide derivative 2 × 10^-10 M, n = 4", "result": "876 ± 120", "unit": "pmol/min"}, {"measurement": "ALPase activity", "setting": "rh-BMP-2 (b ng/ml) + synthetic peptide derivative 2 × 10^-6 M, n = 1", "result": 269, "unit": "pmol/min"}]}
